For series [1], the system named is breast cancer cells (MCF-7). Description: MTS-based cytotoxicity assay, MCF-7. In kind it is cell-based, human. Particulars: 72 h treatment, 0.205–50 μM, mean ± SEM. The method, then:
(§1) In this study, we applied the most extensively used MTS-based assay, which provides a valuable tool for determining cell viability by evaluating metabolic activity. The cytostatic activity of the tested compounds was defined as the half-maximal inhibitory concentration (IC50) causing a 50% decrease in the metabolic activity of the cells. It was determined against breast cancer (MCF-7), fibrosarcoma (HT-1080), and prostate cancer (PC-3) cells.
(§2) The tested compounds were tested against three different human cancer cell lines (breast adenocarcinoma MCF-7 ATCC® HTB-22^TM, fibrosarcoma HT-1080 ATCC® CCL121^TM, and prostate adenocarcinoma PC-3 ATCC® CRL-1435^TM). For the cell viability experiment, cells were seeded in transparent 96-well plates (FALCON no. 353072, Corning, Durham, NC, USA) in MEM (Gibco no. 31095-029, UK) supplemented with 10% heat-inactivated FBS (Gibco no. 10500-064, UK). The cell seeding density was as follows: MCF-7 12,000 cells/well, HT-1080 7000 cells/well, PC-3 10,000 cells/well. Cells were seeded one day before treatment with the tested compounds and cultured overnight. The confluence on the treatment day was around 30%. The tested compounds were dissolved in DMSO as 10 mM stock solutions and kept under −4 °C. On the day of experimentation, the medium was removed and replaced with a fresh one that contained the following: (1) dimethylsulfoxide (DMSO < 0.1%, vehicle control (Veh)); (2) increasing the concentration of compounds (0.205–50 μM, performed as a 2.5-fold serial dilution for dose–response analysis). Treatment with compounds was carried out for 72 h. Each treatment was replicated three times in a single experiment, with three separate experiments conducted. (n = 9). When significant variability in the results occurred, an additional test was performed on certain compounds. During the incubation, the cells were examined under an inverted microscope to check if the compounds had not precipitated in the culture medium. The inhibitory effect of compounds on the cell was examined using an MTS-based assay (Promega, Madison, WI, USA) following the manufacturer’s protocol. The absorbance was measured at 490 nm using Tecan Spark’s multimode plate reader (Tecan, Männedorf, Switzerland). A reference wavelength of 630 nm was used to subtract the background. IC50 values were calculated by fitting a non-linear regression to a sigmoidal dose–response curve in GraphPad Prism version 8.0.1.
A general note: Formazan colour is commonly taken as a measure of viable cells.

Series [2] concerns prostate cancer cells (PC-3). Nature of the series: MTS-based cytotoxicity assay, PC-3. It counts as cell-based, human. As to conditions: 72 h treatment, 0.205–50 μM, mean ± SEM. The method, then: as §1, §2
In series [3] the test system is fibrosarcoma cells (HT-1080). Description: MTS-based cytotoxicity assay, HT-1080. As to conditions: 72 h treatment, 0.205–50 μM, mean ± SEM. In kind it is cell-based, human. The method, then:
as §1, §2

The subject of series [4] is human skin fibroblast (HSF). Nature of the series: Safety study in vitro (MTS viability), HSF. It counts as cell-based. Particulars: 0.205–50 μM, 72 h. The method, then: (§3) In drug development, particular attention should be paid to studying the safety profile of compounds. Promising drug candidates should not cause adverse effects on essential organ systems like the liver, kidney, or healthy cells in general. Systemic toxicity of the compound is the main factor limiting its therapeutic application and efficiency. In our study, a preliminary study on nephrotoxicity and hepatotoxicity was evaluated in human embryonic kidney cells (HEK293, ATCC® CRL1573™) and human hepatoma cells (HepG2, ATCC® HB8065™), respectively. HEK293 is commonly used to evaluate the cytotoxicity of nephrotoxic compounds [42]. HepG2 is a well-established in vitro human cell system to study liver toxicity. We also used healthy human skin fibroblast (HSF) to extend the cytotoxicity profile. All three cell lines were cultured in DMEM (Gibco no. 61965-026, UK) supplemented with 10% FBS (Gibco no. 10500-064, UK). For the experiment, cells were seeded (8 × 10^3 cells/100μL/well) in transparent 96-well plates (FALCON no. 353072, Corning, Durham, […], USA) and cultured overnight. […] DOX was a reference compound that adversely affected the liver, kidney, and healthy cells. Treatment with compounds was carried out for 72 h. Cell viability was examined using an MTS-based CellTiter96® AQueous One Solution Cell Proliferation Assay (Promega, Madison, WI, USA) following the manufacturer’s protocol.

The subject of series [5] is human hepatoma cells (HepG2). Nature of the series: Safety study in vitro (MTS viability), HepG2. In kind it is cell-based. Particulars: 0.205–50 μM, 72 h. How it is done: as §3
In series [6] the test system is human embryonic kidney cells (HEK293). Description: Safety study in vitro (MTS viability), HEK293. In kind it is cell-based. Particulars: 0.205–50 μM, 72 h. How it is done:
as §3

As a reminder, the IC50 is the concentration that gives 50% inhibition. Lower therefore signals greater potency in that assay.

The structures appear in SMILES notation.

Turning to `O=c1c2ccccc2n(C[C@@H]2C[C@@H](P(=O)(OCc3ccccc3)OCc3ccccc3)N(Cc3ccccc3)O2)c(=O)n1Cc1cccc(F)c1` (relative stereo) [trans-16c, Dibenzyl cis- and trans-5-((3-(3-fluorobenzyl)-3,4-dihydro-2,4-dioxoquinazolin-1(2H)-yl)methyl)-2-benzylisoxazolidin-3-yl-3-phosphonate], the IC50 in series [1] (Homo sapiens, MCF7, 72 h) amounted to 130 ± 9.97 µM; in series [2] (Homo sapiens, 72 h), 16.4 ± 4.32 µM; in series [3] (Homo sapiens, HT-1080, 72 h) it was 42.3 ± 3.48 µM.

On to `O=c1c2ccccc2n(C[C@@H]2C[C@@H](P(=O)(OCc3ccccc3)OCc3ccccc3)N(Cc3ccccc3)O2)c(=O)n1Cc1ccc(F)cc1` (relative stereo) [trans-16d, Dibenzyl cis- and trans-5-((3-(4-fluorobenzyl)-3,4-dihydro-2,4-dioxoquinazolin-1(2H)-yl)methyl)-2-benzylisoxazolidin-3-yl-3-phosphonate], for which the half-inhibitory concentration (IC50) was 88.9 ± 3.86 µM in series [1] (Homo sapiens, MCF7, 72 h); 13.9 ± 2.14 µM in series [2] (Homo sapiens, 72 h); 35.6 ± 3.03 µM in series [3] (Homo sapiens, HT-1080, 72 h).

On to `O=c1c2ccccc2n(C[C@@H]2C[C@@H](P(=O)(OCc3ccccc3)OCc3ccccc3)N(Cc3ccccc3)O2)c(=O)n1Cc1ccccc1[N+](=O)[O-]` (relative stereo) [trans-16e, Dibenzyl cis- and trans-(2-benzyl-5-((3-(2-nitrobenzyl)-2,4-dioxo-3,4-dihydroquinazolin-1(2H)-yl)methyl)isoxazolidin-3-yl)phosphonate], for which the 50% inhibitory concentration (IC50) in series [1] (Homo sapiens, MCF7, 72 h) was 57.9 ± 8.36 µM; in series [2] (Homo sapiens, 72 h), 26.6 ± 1.09 µM; in series [3] (Homo sapiens, HT-1080, 72 h), 29.8 ± 4.75 µM.

As for `O=c1c2ccccc2n(C[C@@H]2C[C@@H](P(=O)(OCc3ccccc3)OCc3ccccc3)N(Cc3ccccc3)O2)c(=O)n1Cc1cccc([N+](=O)[O-])c1` (relative stereo) [trans-16f, Dibenzyl cis- and trans-2-benzyl-5-((3-(3-nitrobenzyl)-2,4-dioxo-3,4-dihydroquinazolin-1(2H)-yl)methyl)isoxazolidin-3-yl)phosphonate], the IC50 stood at 59.4 ± 0.78 µM in series [1] (Homo sapiens, MCF7, 72 h); 18.1 ± 0.98 µM in series [2] (Homo sapiens, 72 h); 23.1 ± 9.22 µM in series [3] (Homo sapiens, HT-1080, 72 h).

For the molecule `O=c1c2ccccc2n(C[C@@H]2C[C@@H](P(=O)(OCc3ccccc3)OCc3ccccc3)N(Cc3ccccc3)O2)c(=O)n1Cc1ccc([N+](=O)[O-])cc1` (relative stereo) [trans-16g, Dibenzyl cis- and trans-(2-benzyl-5-((3-(4-nitrobenzyl)-2,4-dioxo-3,4-dihydroquinazolin-1(2H)-yl)methyl)isoxazolidin-3-yl)phosphonate], the IC50 in series [1] (Homo sapiens, MCF7, 72 h) worked out at 142 ± 5.11 µM; in series [2] (Homo sapiens, 72 h), 16.7 ± 3.48 µM; in series [3] (Homo sapiens, HT-1080, 72 h), 16.6 ± 3.11 µM.

For `COc1cccc2c1C(=O)c1c(O)c3c(c(O)c1C2=O)C[C@@](O)(C(=O)CO)C[C@@H]3O[C@H]1C[C@H](N)[C@H](O)[C@H](C)O1` [Doxorubicin, reference compound], the “Cell viability, HSF” value in series [4] is “significant cytotoxic effect”. Further, the “Cell viability, HepG2” value in series [5] is “significant cytotoxic effect”. Further, the “Cell viability, HEK293” value in series [6] is “significant cytotoxic effect”.

As to `O=c1c2ccccc2n(CC2CC(P(=O)(OCc3ccccc3)OCc3ccccc3)N(Cc3ccccc3)O2)c(=O)n1Cc1ccccc1` (stereo not drawn) [cis-16a/trans-16a (97:3), Dibenzyl cis- and trans-2-benzyl-5-((3-benzyl-3,4-dihydro-2,4-dioxoquinazolin-1(2H)-yl)methyl)isoxazolidin-3-yl-3-phosphonate], the “Cell viability, HSF” value in series [4] is “no adverse effect was observed”. For the same molecule, the “Cell viability, HepG2” value in series [5] was “did not affect cell viability”. Further, the “Cell viability, HEK293” value in series [6] is reported as “did not affect cell viability”. The IC50 in series [1] (Homo sapiens, MCF7, 72 h) came out at 90.3 ± 4.57 µM; in series [2] (Homo sapiens, 72 h) it was 12.6 ± 5.56 µM; in series [3], 19.9 ± 8.13 µM.

For `O=c1c2ccccc2n(CC2CC(P(=O)(OCc3ccccc3)OCc3ccccc3)N(Cc3ccccc3)O2)c(=O)n1Cc1ccccc1F` (stereo not drawn) [cis-16b/trans-16b (90:10), Dibenzyl cis- and trans-5-((3-(2-fluorobenzyl)-3,4-dihydro-2,4-dioxoquinazolin-1(2H)-yl)methyl)-2-benzylisoxazolidin-3-yl-3-phosphonate], the “Cell viability, HSF” value in series [4] is reported as “no adverse effect was observed”. The “Cell viability, HepG2” value in series [5] is listed as “did not affect cell viability”. Also, in series [6], the “Cell viability, HEK293” value is listed as “did not affect cell viability”. In addition, the IC50 was 104 ± 7.38 µM in series [1] (Homo sapiens, MCF7, 72 h); 11.2 ± 1.99 µM in series [2] (Homo sapiens, 72 h); 27.3 ± 5.43 µM in series [3] (Homo sapiens, HT-1080, 72 h).

`O=c1c2ccccc2n(CC2CC(P(=O)(OCc3ccccc3)OCc3ccccc3)N(Cc3ccccc3)O2)c(=O)n1Cc1cccc(F)c1` (stereo not drawn) [cis-16c/trans-16c (90:10), Dibenzyl cis- and trans-5-((3-(3-fluorobenzyl)-3,4-dihydro-2,4-dioxoquinazolin-1(2H)-yl)methyl)-2-benzylisoxazolidin-3-yl-3-phosphonate]: the concentration for half-maximal inhibition (IC50) in series [1] (Homo sapiens, MCF7, 72 h) was 238 ± 20.7 µM; in series [2] (Homo sapiens, 72 h), 17.6 ± 6.21 µM; in series [3] (Homo sapiens, HT-1080, 72 h), 20.5 ± 1.56 µM.

Turning to `O=c1c2ccccc2n(CC2CC(P(=O)(OCc3ccccc3)OCc3ccccc3)N(Cc3ccccc3)O2)c(=O)n1Cc1ccc(F)cc1` (stereo not drawn) [cis-16d/trans-16d (96:4), Dibenzyl cis- and trans-5-((3-(4-fluorobenzyl)-3,4-dihydro-2,4-dioxoquinazolin-1(2H)-yl)methyl)-2-benzylisoxazolidin-3-yl-3-phosphonate], the IC50 is 116 ± 5.73 µM in series [1] (Homo sapiens, MCF7, 72 h); 16.4 ± 3.69 µM in series [2] (Homo sapiens, 72 h); 10.4 ± 2.69 µM in series [3] (Homo sapiens, HT-1080, 72 h).

As for `O=c1c2ccccc2n(CC2CC(P(=O)(OCc3ccccc3)OCc3ccccc3)N(Cc3ccccc3)O2)c(=O)n1Cc1ccccc1[N+](=O)[O-]` (stereo not drawn) [cis-16e/trans-16e (70:30), Dibenzyl cis- and trans-(2-benzyl-5-((3-(2-nitrobenzyl)-2,4-dioxo-3,4-dihydroquinazolin-1(2H)-yl)methyl)isoxazolidin-3-yl)phosphonate], the half-maximal inhibitory concentration (IC50) in series [1] (Homo sapiens, MCF7, 72 h) is 59.1 ± 3.77 µM; in series [2] (Homo sapiens, 72 h), 26.6 ± 4.69 µM; in series [3] (Homo sapiens, HT-1080, 72 h), 59.6 ± 0.36 µM.

Take `O=c1c2ccccc2n(CC2CC(P(=O)(OCc3ccccc3)OCc3ccccc3)N(Cc3ccccc3)O2)c(=O)n1Cc1cccc([N+](=O)[O-])c1` (stereo not drawn) [cis-16f/trans-16f (96:4), Dibenzyl cis- and trans-2-benzyl-5-((3-(3-nitrobenzyl)-2,4-dioxo-3,4-dihydroquinazolin-1(2H)-yl)methyl)isoxazolidin-3-yl)phosphonate]: the half-maximal inhibitory concentration (IC50) in series [1] (Homo sapiens, MCF7, 72 h) is 91.7 ± 1.47 µM; in series [2] (Homo sapiens, 72 h) it was 24.8 ± 2.15 µM; in series [3] (Homo sapiens, HT-1080, 72 h), 17.1 ± 5.73 µM.

In the case of `O=c1c2ccccc2n(CC2CC(P(=O)(OCc3ccccc3)OCc3ccccc3)N(Cc3ccccc3)O2)c(=O)n1Cc1ccc([N+](=O)[O-])cc1` (stereo not drawn) [cis-16g/trans-16g (88:12), Dibenzyl cis- and trans-(2-benzyl-5-((3-(4-nitrobenzyl)-2,4-dioxo-3,4-dihydroquinazolin-1(2H)-yl)methyl)isoxazolidin-3-yl)phosphonate], the IC50 in series [1] (Homo sapiens, MCF7, 72 h) turned out to be 116 ± 9.69 µM; in series [2] (Homo sapiens, 72 h), 21.5 ± 4.63 µM; in series [3] (Homo sapiens, HT-1080, 72 h), 16.4 ± 2.03 µM.

Take `O=c1c2ccccc2n(CC2CC(P(=O)(OCc3ccccc3)OCc3ccccc3)N(Cc3ccccc3)O2)c(=O)n1Cc1ccccc1` (stereo not drawn) [trans-16a, Dibenzyl cis- and trans-2-benzyl-5-((3-benzyl-3,4-dihydro-2,4-dioxoquinazolin-1(2H)-yl)methyl)isoxazolidin-3-yl-3-phosphonate]: the values for the 50% inhibitory concentration (IC50) in series [1], in series [2] and in series [3] were 96 ± 4.66 µM, 12.7 ± 3.45 µM and 40.5 ± 5.44 µM, respectively.

The record behind these values is PMC11243672, “New 3-(Dibenzyloxyphosphoryl)isoxazolidine Conjugates of N1-Benzylated Quinazoline-2,4-diones as Potential Cytotoxic Agents against Cancer Cell Lines” (Molecules, 2024).
